# Data as given in patent publication US7538216B2, “Guanidino phenylalanin compounds used as urokinase inhibitors” (Wilex AG, priority 2002, dated 2009).
# Structures can show the parent of a compound that is named as a salt.
# What was measured:
# Format in all cases: biochemical
# thrombin = thrombin (Homo sapiens, UniProt P00734); experiment: In-vitro inhibition of serine proteases of the trypsin type: thrombin
# Experimental: (§1) In order to determine the activity of the inhibitor, 200 μl of Tris buffer (0.05 mol/l, containing the inhibitor, 0.154 mol of NaCl/l, 5% ethanol, pH 8.0), 25 μl of substrate (Pefachrome UK or Bz-βAla-Gly-Arg-pNA in H2O; Pentapharm Ltd., Basle, Switzerland) and 50 μl of sc-urokinase (Ribosepharm GmbH, Haan, Germany) were incubated at 25° C. After 3 min, the reaction was terminated by adding 25 μl of acetic acid (50%) and the absorption was determined at 405 nm using a Microplate Reader (MR 5000, Dynatech, Denkendorf, Germany). The Ki values were determined in accordance with Dixon by means of linear regression using a computer program. The Ki values are the means of at least 3 determinations; the standard deviation was less than 25%.
# (§2) The inhibitory effect for the enzymes employed was determined in accordance with the principle described in Example 3.
# plasmin = target: T1, plasmin (Homo sapiens, UniProt P00747); experiment: In-vitro inhibition of serine proteases of the trypsin type: plasmin
# T1 construct: uPA mediates the proteolytic cleavage of plasminogen to give plasmin
# T1 sequence (P00747 581-810 limits assumed, species assumed): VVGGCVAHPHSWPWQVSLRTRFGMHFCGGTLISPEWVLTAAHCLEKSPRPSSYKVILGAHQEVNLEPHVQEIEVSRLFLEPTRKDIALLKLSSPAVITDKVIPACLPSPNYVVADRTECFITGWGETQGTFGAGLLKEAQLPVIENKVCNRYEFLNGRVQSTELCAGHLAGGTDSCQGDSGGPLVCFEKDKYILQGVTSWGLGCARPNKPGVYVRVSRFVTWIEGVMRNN
# T1 sequence (P00747 97-580 partner limits assumed, species assumed): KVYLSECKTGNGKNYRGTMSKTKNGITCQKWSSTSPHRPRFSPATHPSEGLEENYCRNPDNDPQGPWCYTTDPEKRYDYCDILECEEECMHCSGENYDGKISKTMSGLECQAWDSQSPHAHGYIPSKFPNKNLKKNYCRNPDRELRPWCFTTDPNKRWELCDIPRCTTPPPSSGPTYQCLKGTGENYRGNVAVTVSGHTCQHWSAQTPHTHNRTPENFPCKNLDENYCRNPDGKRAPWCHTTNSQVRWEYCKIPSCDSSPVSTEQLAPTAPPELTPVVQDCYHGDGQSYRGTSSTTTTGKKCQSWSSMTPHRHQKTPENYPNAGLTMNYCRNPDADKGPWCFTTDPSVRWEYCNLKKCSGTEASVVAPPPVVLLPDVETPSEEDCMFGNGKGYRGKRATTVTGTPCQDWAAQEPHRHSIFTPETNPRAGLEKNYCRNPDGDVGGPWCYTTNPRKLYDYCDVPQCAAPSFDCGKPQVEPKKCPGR
# Experimental: as §1, §2
# sc-urokinase = target: T2, sc-urokinase (Homo sapiens, UniProt P00749); experiment: In-vitro inhibition of urokinase (chromogenic substrate, Dixon); conditions: 25° C, pH 8.0; mean of at least 3 determinations
# T2 construct: purchased Ribosepharm GmbH, Haan, Germany
# Experimental: as §1
structure (smiles),measurement,setting,value
"CCOC(=O)N1CCN(C(=O)[C@H](Cc2cccc(NC(=N)N)c2)NS(=O)(=O)c2c(C(C)C)cc(C(C)C)cc2C(C)C)CC1 [Example 1, Nα-2,4,6-triisopropylphenylsulfonyl-3-guanidino-(L)-phenylalanine-4-ethoxycarbonylpiperazine hydrochloride]",Ki,thrombin,≥ 12 µM
same,Ki,plasmin,3.8 µM
same,Ki,sc-urokinase,0.47 µM
